Assay results reported in patent publication US20240034761A1, “REGENERATION OF MAMMALIAN TISSUES USING SYNTHETIC IMMODULINS” (priority 2022, published 2024).
Marks after values point to notes of the source that are not given here. Peptide text beside a SMILES is read from it.

Assays:
[1] = test system: C2C12 myoblastic cell line; experiment: C2C12 myoblast differentiation, creatine kinase; type: cell-based; details: 0.66 uM peptide, 96 hours, relative to immX3AVD = 100
Description: Differentiation assays employed the C2C12 myoblastic cell line (ATCC, Manassas, VA) seeded at 2×10e5 cells per well in 96-well plates and cultured at 37 degrees C. in DMEM growth medium plus 10% fetal bovine serum and 1% penicillin/streptomycin. For differentiation, 10% fetal bovine serum was replaced with 2% horse serum. 0.66 uM peptide was then added, and incubation continued for an additional 96 hours. Plates with adherent cells were washed with PBS, lysed with Lytic-M buffer (Sigma Chemical Company, St. Louis, MO) and the lysates were assayed for creatine kinase using a kit purchased from Bioassay Systems (Cat. #ECPK-100, Hayward, CA). Effects were visually confirmed with microscopy tracking myotube formation. Results were expressed as units per milliliter relative to the control immX3AVD peptide, and p values were also calculated and shown relative to control immX3AVD peptide (** p<0.05 versus immX3AVD control; avg±SD).

[2] = Plate binding of FITC-labelled heparin to immobilised biotinylated peptides; details: 400 ng peptide/well, 1 ug FITC-heparin, PBS; normalized to immX3 peptide binding = 100
Description: (§1) Effects of pH, PIP2 and size classes: Streptavidin-coated 96-well plates (G-Biosciences, St. Louis, MO) were pre-loaded with biotinylated peptides [see Example 1] at 400 ng/well, at room temperature for 60 minutes. The plate was washed with PBS buffer and then 1 ug FITC-labelled heparin or hyaluronic acid (FITC-HMW-HA) in 100 uL PBS buffer was added per well (all tests done in quadruplicate). Incubation proceeded for 90 minutes at room temperature, followed by two PBS washes. The plate was read in a standard laboratory fluorometer (488/525 nm exitation/[…]) and the counts normalized for immX3 peptide binding=100. Values statistically above background are shown in bold font. **p<0.05 versus immX3AVD.

[3] = test system: Osteoblast cell line MC3T3E1; experiment: MC3T3E1 osteoblast differentiation, alkaline phosphatase; type: cell-based; details: peptide 0.66 uM, 5 days, immX3AVD = 100
Description: Yet another non-myeloid lineage was tested. Osteoblast cell line MC3T3E1 was purchased from ATCC (Manassas, VA) and grown in 96-well plates in alpha-MEM medium supplemented with 50 ug/ml ascorbic acid and 5 mM beta-glycerophosphate. Peptides were added and incubation proceeded for 5 days. Cells were washed with PBS buffer and extracts prepared using 100 uL 1X RIPA buffer (Cayman Chemical Company; Ann Arbor, MI) per well. Alkaline phosphatase was measured using 0.37 mg/ml 4-nitrophenyl phosphate in DEA buffer (both reagents purchased from Cayman Chemical Company) by measuring the slope of absorbance at 405 nm using a spectrophotometer. 10 uL of RIPA extract was used for each assay. Separately, protein concentration of extract was measured using a commercial kit. Values were corrected for protein concentration. Results are shown below (**p<0.05 vs immX3AVD=100): […]

[4] = test system: THP1-Dual monocyte reporter cell line; experiment: Adjuvant effect of helper molecules on immX3 peptide potency in THP1-Dual assay; type: cell-based, human; details: immX3 peptide 330 nM, no helper (buffer)
Description: Mammalian cell differentiation assays employed the THP1-Dual monocyte reporter cell line (Invivogen Inc, San Diego, CA) seeded at 2×10e5 cells per well in 96-well plates and cultured at 37 degrees C. in RPMI-1640 growth medium plus 10% fetal bovine serum and 1% penicillin/streptomycin. Cells were subsequently treated for 24 hours with 100 ng/ml Phorbol 12-myristate 13-acetate (PMA protocol; Cayman Chemical Company, Ann Arbor, MI). Peptide (0.33 uM or 0.66 uM, as indicated) was then added, and incubation continued for an additional 24 hours. Culture supernatants were assayed for CCL22. Plates with adherent cells were washed with PBS and assayed for immunoreactivity of surface markers such as CD169, Clec9a or Clec12a using fuorescent tag- or biotin-labeled anti-human antibodies purchased from Miltenyi Biotec (Auburn, CA) and the secondary detection reagent recommended by the manufacturer.
The THP1-Dual cell differentiation assay was carried out as described above in Example 2, using immX3 peptide (330 nM) in all samples plus the indicated helper or inhibitor molecule. Molecules were purched from Cayman Chemical Company (Ann Arbor, MI) or Sigma Chemical Company (St. Louis, MO). AU=arbitrary ELISA units. **p<0.01.

recombinant CD44 protein = target: T1, recombinant CD44 protein (Homo sapiens, UniProt P16070); experiment: Third binding experiment: CD44 binding to peptide/holotransferrin/hyaluronan complexes; details: for CD44 immunoreactivity, 1.5 ug/w HMW-HA: immX3AVD + 1.5 ug HMW-HA set to 100 AU; for CD44 immunoreactivity, CONTROL: no hyaluronan, 100 ng/well CD44
T1 construct: purchased Abcam, Waltham, MA
Description: as §1
A third binding experiment was done as described above using immX3AVD peptide with or without 10 ug/well holotransferrin (holoTf) plus either 10 ug/well LMW-HA or either 1.5 ug or 10 ug HMW-HA/well in the binding step, followed by a buffer wash step. 100 ng/well pure recombinant CD44 protein (Abcam, Waltham, MA) was then added to the indicated wells, incubated for 60 minutes at room temperature and the plate was washed with buffer. Anti-CD44 monoclonal antibody (Abcam, Waltham, MA) was added towells at 1:200, incubated for 60 minutes at room temperature and the plate was then washed and developed by secondary antibody and TMB detection as recommended by the manufacturer. CD44 immunoreactivity was expressed in arbitrary immunoreactivity units (AU), with **p<0.05 versus immx3AVD+1.5 ug HMW-HA control, which was set to=100 AU.

[5] = Second binding experiment: FITC-HMW-HA binding with holotransferrin, pH and cold competitors; design: key to FITC-HMW-HA binding, +cold LMW-HA / FITC-HMW-HA binding, +cold HMW-HA: fluorescence counts normalized to peptide binding control = 100; details: holotransferrin 10 ug/well; for FITC-HMW-HA binding, +cold HMW-HA: HMW-HA 10 ug/well; for FITC-HMW-HA binding, +cold LMW-HA: LMW-HA hexamer 10 ug/well; for FITC-HMW-HA binding, +cold PIP2: excess PIP2 500 ng/well
Description: as §1
A second binding experiment was done as above, but using either 6 mM sodium phosphate buffer pH 7.4 or sodium citrate buffer pH 5.2 in the presence of FITC-HMW-HA (1.5 ug/well), holotransferrin (10 ug/well) and excess PIP2 (500 ng/well), LMW-HA (hexamer; 10 ug/well) or HMW-HA (10 ug/well). **p<0.05 versus peptide binding control (=100);

T1 sequence (P16070 21-742, species assumed): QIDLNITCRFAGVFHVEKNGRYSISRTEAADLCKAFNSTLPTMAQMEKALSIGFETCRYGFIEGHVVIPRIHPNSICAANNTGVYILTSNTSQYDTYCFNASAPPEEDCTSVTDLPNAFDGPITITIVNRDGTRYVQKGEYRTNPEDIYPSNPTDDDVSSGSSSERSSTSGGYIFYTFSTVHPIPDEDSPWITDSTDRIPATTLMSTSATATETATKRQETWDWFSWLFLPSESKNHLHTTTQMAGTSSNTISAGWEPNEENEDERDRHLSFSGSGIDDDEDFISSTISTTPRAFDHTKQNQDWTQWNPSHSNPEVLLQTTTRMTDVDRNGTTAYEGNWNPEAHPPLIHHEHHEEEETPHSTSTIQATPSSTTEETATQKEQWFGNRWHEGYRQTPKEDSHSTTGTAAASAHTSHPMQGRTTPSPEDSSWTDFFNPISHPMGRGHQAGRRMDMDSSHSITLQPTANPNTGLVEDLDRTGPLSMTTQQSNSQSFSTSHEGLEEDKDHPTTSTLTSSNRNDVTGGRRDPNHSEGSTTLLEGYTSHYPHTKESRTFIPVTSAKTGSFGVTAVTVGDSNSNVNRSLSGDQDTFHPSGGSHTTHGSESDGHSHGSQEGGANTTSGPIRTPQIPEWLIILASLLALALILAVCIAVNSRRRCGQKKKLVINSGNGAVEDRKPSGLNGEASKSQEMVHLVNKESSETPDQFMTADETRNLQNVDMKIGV

## CC(C)[C@H](NC(=O)[C@H](C)NC(=O)[C@H](Cc1c[nH]c2ccccc12)NC(=O)[C@H](CS)NC(=O)[C@H](Cc1ccccc1)NC(=O)CNC(=O)[C@H](CCCNC(=N)N)NC(=O)[C@H](CCCCN)NC(=O)[C@H](CCCNC(=N)N)NC(=O)CNC(=O)[C@H](CCCCN)NC(=O)[C@H](CO)NC(=O)[C@@H]1CCCN1C(=O)[C@H](CCCNC(=N)N)NC(=O)[C@H](CS)NC(=O)[C@H](CCC(N)=O)NC(=O)[C@H](CCCCN)NC(=O)[C@H](CCCCN)NC(=O)[C@H](CCCCN)NC(=O)[C@H](Cc1ccc(O)cc1)NC(=O)[C@H](Cc1ccccc1)NC(=O)CNC(=O)[C@H](CCCCN)NC(=O)[C@@H](N)CCCCN)C(=O)N[C@@H](CC(=O)O)C(=O)O [immX3AVD] (H-KKGFYKKKQCRPSKGRKRGFCWAVD-OH)
[1]; helper D-raffinose (1 mM)
  Creatine Kinase Act.: 140.3 ± 8.3** units per milliliter
[1]; helper GW 3965 (2 uM)
  Creatine Kinase Act.: 67.4 ± 5.2** units per milliliter
[1]; helper GW 501516 (2 uM)
  Creatine Kinase Act.: 174.2 ± 5.0** units per milliliter
[1]; helper L-ornithine (1 mM)
  Creatine Kinase Act.: 161.5 ± 6.5** units per milliliter
[1]; helper Tf (holotransferrin 2 ug/ml)
  Creatine Kinase Act.: 120.6 ± 2.5** units per milliliter
[1]; helper Tf + HMW-HA (2 ug/ml)
  Creatine Kinase Act.: 33.2 ± 3.2 # units per milliliter
[1]; helper Tf + LMW-HA (2 ug/ml)
  Creatine Kinase Act.: 136.7 ± 13.3 units per milliliter
[1]; helper ciprofibrate (2 uM)
  Creatine Kinase Act.: 109.4 ± 3.2** units per milliliter
[1]; helper none
  Creatine Kinase Act.: 100.0 ± 2.2 units per milliliter
[2]
  Heparin binding (fluorescence counts): 100.0 ± 4.7
[3]; compound added: None
  Alk. Phos. Activity: 100.0 ± 0.5
[3]; plus 2 uM Ciprofibrate
  Alk. Phos. Activity: 127.2 ± 2.7**
[3]; plus 2 uM GW 3965
  Alk. Phos. Activity: 59.1 ± 4.3**
[3]; plus 2 uM GW 501516
  Alk. Phos. Activity: 168.7 ± 3.0**
[3]; plus 1 mM D-raffinose
  Alk. Phos. Activity: 134.6 ± 4.6**
[3]; plus 1 mM L-ornithine
  Alk. Phos. Activity: 159.7 ± 4.4**
[4]
  CD169 (AU): 100.0 ± 4.9 AU
Recombinant CD44 protein; pH 5.2
  CD44 immunoreactivity, 10 ug/w HMW-HA: 105.1 ± 11.4 AU
  CD44 immunoreactivity, 10 ug/w LMW-HA: 102.6 ± 17.9 AU
  CD44 immunoreactivity, 1.5 ug/w HMW-HA: 100.0 ± 4.6 AU
  CD44 immunoreactivity, CONTROL: 13.2 ± 22.0** AU
Recombinant CD44 protein; pH 7.4
  CD44 immunoreactivity, 10 ug/w HMW-HA: 101.1 ± 4.9 AU
  CD44 immunoreactivity, 10 ug/w LMW-HA: 103.0 ± 19.4 AU
  CD44 immunoreactivity, 1.5 ug/w HMW-HA: 100.0 ± 15.5 AU
  CD44 immunoreactivity, CONTROL: 19.6 ± 13.0** AU
[5]; pH 5.2
  FITC-HMW-HA binding, CONTROL: 140.0 ± 16.7**
  FITC-HMW-HA binding, +cold HMW-HA: 12.5 ± 7.1**
  FITC-HMW-HA binding, +cold LMW-HA: 100.6 ± 15.9
  FITC-HMW-HA binding, +cold PIP2: 92.2 ± 29.4
[5]; pH 7.4
  FITC-HMW-HA binding, +cold HMW-HA: 18.5 ± 3.7**
  FITC-HMW-HA binding, +cold LMW-HA: 92.6 ± 11.8**
  FITC-HMW-HA binding, +cold PIP2: 10.4 ± 8.2**
[5]; pH 7.4, peptide binding control = 100
  FITC-HMW-HA binding, CONTROL: 100.0 ± 8.3
